Assays:
Assay type in all cases: functional
Staphylococcus aureus [1] = test: Antibacterial activity against Staphylococcus aureus ATCC 6538 after 18 hrs by twofold serial agar dilution technique; conditions: ATCC 6538, 18 h
Staphylococcus aureus [2] = test: Antibacterial activity against Staphylococcus aureus ATCC 29213 after 18 hrs by twofold serial agar dilution technique; conditions: ATCC 29213, 18 h
[3] = test system: Bordetella bronchiseptica; test: Antibacterial activity against Bordetella bronchiseptica ATCC 4617 after 18 hrs by twofold serial agar dilution technique; conditions: ATCC 4617, 18 h
Pseudomonas aeruginosa [4] = test: Antibacterial activity against Pseudomonas aeruginosa ATCC 27853 after 18 hrs by twofold serial agar dilution technique; conditions: ATCC 27853, 18 h
Pseudomonas aeruginosa [5] = test: Antibacterial activity against Pseudomonas aeruginosa ATCC 27853 assessed as zone of inhibition at 400 ug/disc after 18 hrs by disc diffusion method; conditions: ATCC 27853, 18 h, read-out: DIZ
[6] = test system: Staphylococcus epidermidis; test: Antibacterial activity against Staphylococcus epidermidis ATCC 12228 assessed as zone of inhibition at 400 ug/disc after 18 hrs by disc diffusion method; conditions: ATCC 12228, 18 h, read-out: DIZ
[7] = test system: Bordetella bronchiseptica; test: Antibacterial activity against Bordetella bronchiseptica ATCC 4617 assessed as zone of inhibition at 400 ug/disc after 18 hrs by disc diffusion method; conditions: ATCC 4617, 18 h, read-out: DIZ
Escherichia coli [8] = test: Antibacterial activity against Escherichia coli ATCC 25922 assessed as zone of inhibition at 400 ug/disc after 18 hrs by disc diffusion method; conditions: ATCC 25922, 18 h, read-out: DIZ
Staphylococcus aureus [9] = test: Antibacterial activity against Staphylococcus aureus NCTC 4163 after 18 hrs by twofold serial agar dilution technique; conditions: NCTC 4163, 18 h
Staphylococcus aureus [10] = test: Antibacterial activity against Staphylococcus aureus ATCC 25923 after 18 hrs by twofold serial agar dilution technique; conditions: ATCC 25923, 18 h
[11] = test system: Staphylococcus epidermidis; test: Antibacterial activity against Staphylococcus epidermidis ATCC 12228 after 18 hrs by twofold serial agar dilution technique; conditions: ATCC 12228, 18 h
Candida albicans [12] = test: Antifungal activity against Candida albicans ATCC 90028 after 24 hrs by twofold serial agar dilution technique; conditions: ATCC 90028, 24 h
Proteus vulgaris [13] = test: Antibacterial activity against Proteus vulgaris NCTC 4635 after 18 hrs by twofold serial agar dilution technique; conditions: NCTC 4635, 18 h
Candida parapsilosis = test: Antifungal activity against Candida parapsilosis ATCC 22019 after 24 hrs by twofold serial agar dilution technique; conditions: Lodderomyces parapsilosis, ATCC 22019, 24 h
Pseudomonas aeruginosa [14] = test: Antibacterial activity against Pseudomonas aeruginosa NCTC 6749 after 18 hrs by twofold serial agar dilution technique; conditions: NCTC 6749, 18 h
Staphylococcus aureus [15] = test: Antibacterial activity against Staphylococcus aureus ATCC 29213 assessed as zone of inhibition at 400 ug/disc after 18 hrs by disc diffusion method; conditions: ATCC 29213, 18 h, read-out: DIZ
Pseudomonas aeruginosa [16] = test: Antibacterial activity against Pseudomonas aeruginosa ATCC 15442 after 18 hrs by twofold serial agar dilution technique; conditions: ATCC 15442, 18 h
Escherichia coli [17] = test: Antibacterial activity against Escherichia coli NCTC 8196 after 18 hrs by twofold serial agar dilution technique; conditions: NCTC 8196, 18 h
Pseudomonas aeruginosa [18] = test: Antibacterial activity against Pseudomonas aeruginosa NCTC 6749 assessed as zone of inhibition at 400 ug/disc after 18 hrs by disc diffusion method; conditions: NCTC 6749, 18 h, read-out: DIZ
Staphylococcus aureus [19] = test: Antibacterial activity against Staphylococcus aureus ATCC 6538 assessed as zone of inhibition at 400 ug/disc after 18 hrs by disc diffusion method; conditions: ATCC 6538, 18 h, read-out: DIZ
[20] = test system: Staphylococcus epidermidis; test: Antibacterial activity against Staphylococcus epidermidis ATCC 35984 assessed as zone of inhibition at 400 ug/disc after 18 hrs by disc diffusion method; conditions: ATCC 35984, 18 h, read-out: DIZ
Proteus vulgaris [21] = test: Antibacterial activity against Proteus vulgaris NCTC 4635 assessed as zone of inhibition at 400 ug/disc after 18 hrs by disc diffusion method; conditions: NCTC 4635, 18 h, read-out: DIZ
Escherichia coli [22] = test: Antibacterial activity against Escherichia coli ATCC 10538 assessed as zone of inhibition at 400 ug/disc after 18 hrs by disc diffusion method; conditions: ATCC 10538, 18 h, read-out: DIZ
Staphylococcus aureus [23] = test: Antibacterial activity against Staphylococcus aureus ATCC 25923 assessed as zone of inhibition at 400 ug/disc after 18 hrs by disc diffusion method; conditions: ATCC 25923, 18 h, read-out: DIZ
Candida albicans [24] = test: Antifungal activity against Candida albicans ATCC 10231 after 24 hrs by twofold serial agar dilution technique; conditions: ATCC 10231, 24 h
Escherichia coli [25] = test: Antibacterial activity against Escherichia coli ATCC 10538 after 18 hrs by twofold serial agar dilution technique; conditions: ATCC 10538, 18 h
Escherichia coli [26] = test: Antibacterial activity against Escherichia coli NCTC 8196 assessed as zone of inhibition at 400 ug/disc after 18 hrs by disc diffusion method; conditions: NCTC 8196, 18 h, read-out: DIZ
Pseudomonas aeruginosa [27] = test: Antibacterial activity against Pseudomonas aeruginosa ATCC 15442 assessed as zone of inhibition at 400 ug/disc after 18 hrs by disc diffusion method; conditions: ATCC 15442, 18 h, read-out: DIZ
Escherichia coli [28] = test: Antibacterial activity against Escherichia coli ATCC 25922 after 18 hrs by twofold serial agar dilution technique; conditions: ATCC 25922, 18 h
[29] = test system: Staphylococcus epidermidis; test: Antibacterial activity against Staphylococcus epidermidis ATCC 35984 after 18 hrs by twofold serial agar dilution technique; conditions: ATCC 35984, 18 h
Staphylococcus aureus [30] = test: Antibacterial activity against Staphylococcus aureus NCTC 4163 assessed as zone of inhibition at 400 ug/disc after 18 hrs by disc diffusion method; conditions: NCTC 4163, 18 h, read-out: DIZ

| SMILES | MIC (Staphylococcus aureus [1]) | MIC (Staphylococcus aureus [2]) | MIC [3] | MIC (Pseudomonas aeruginosa [4]) | zone of inhibition at 400 µg/disc (Pseudomonas aeruginosa [5]) | zone of inhibition at 400 µg/disc [6] | zone of inhibition at 400 µg/disc [7] | zone of inhibition at 400 µg/disc (Escherichia coli [8]) | MIC (Staphylococcus aureus [9]) | MIC (Staphylococcus aureus [10]) | MIC [11] | MIC (Candida albicans [12]) | MIC (Proteus vulgaris [13]) | MIC (Candida parapsilosis) | MIC (Pseudomonas aeruginosa [14]) | zone of inhibition at 400 µg/disc (Staphylococcus aureus [15]) | MIC (Pseudomonas aeruginosa [16]) | MIC (Escherichia coli [17]) | zone of inhibition at 400 µg/disc (Pseudomonas aeruginosa [18]) | zone of inhibition at 400 µg/disc (Staphylococcus aureus [19]) | further results |
| --- | --- | --- | --- | --- | --- | --- | --- | --- | --- | --- | --- | --- | --- | --- | --- | --- | --- | --- | --- | --- | --- |
| CCCCNC(=O)[C@H](CC)[C@H]1CC[C@H](C)[C@H]([C@@H](C)[C@H](O)[C@H](C)C(=O)[C@H](CC)[C@H]2O[C@]3(C=C[C@@H](O)[C@]4(CC[C@@](C)([C@H]5CC[C@](O)(CC)[C@H](C)O5)O4)O3)[C@H](C)C[C@@H]2C)O1 | ≥ 256 µg/mL | ≥ 256 µg/mL | ≥ 256 µg/mL | ≥ 256 µg/mL | 10 mm | 10 mm | 10 mm | 10 mm | ≥ 256 µg/mL | ≥ 256 µg/mL | ≥ 256 µg/mL | ≥ 256 µg/mL | ≥ 256 µg/mL | ≥ 256 µg/mL | ≥ 256 µg/mL | 10 mm | ≥ 256 µg/mL | ≥ 256 µg/mL | 10 mm | 10 mm | zone of inhibition at 400 µg/disc [20]: 10 mm; zone of inhibition at 400 µg/disc (Proteus vulgaris [21]): 10 mm; zone of inhibition at 400 µg/disc (Escherichia coli [22]): 10 mm; zone of inhibition at 400 µg/disc (Staphylococcus aureus [23]): 10 mm; MIC (Candida albicans [24]): ≥ 256 µg/mL; MIC (Escherichia coli [25]): ≥ 256 µg/mL; zone of inhibition at 400 µg/disc (Escherichia coli [26]): 10 mm; zone of inhibition at 400 µg/disc (Pseudomonas aeruginosa [27]): 10 mm; MIC (Escherichia coli [28]): ≥ 256 µg/mL; MIC [29]: ≥ 256 µg/mL; zone of inhibition at 400 µg/disc (Staphylococcus aureus [30]): 10 mm |
| CC[C@@H](C(=O)[C@@H](C)[C@@H](O)[C@H](C)[C@@H]1O[C@@H]([C@@H](CC)C(=O)NCc2ccccc2)CC[C@@H]1C)[C@H]1O[C@]2(C=C[C@@H](O)[C@]3(CC[C@@](C)([C@H]4CC[C@](O)(CC)[C@H](C)O4)O3)O2)[C@H](C)C[C@@H]1C | ≥ 256 µg/mL | ≥ 256 µg/mL | ≥ 256 µg/mL | ≥ 256 µg/mL | 10 mm | 10 mm | 10 mm | 10 mm | ≥ 256 µg/mL | ≥ 256 µg/mL | ≥ 256 µg/mL | ≥ 256 µg/mL | ≥ 256 µg/mL | ≥ 256 µg/mL | ≥ 256 µg/mL | 10 mm | ≥ 256 µg/mL | ≥ 256 µg/mL | 10 mm | 10 mm | zone of inhibition at 400 µg/disc [20]: 10 mm; zone of inhibition at 400 µg/disc (Proteus vulgaris [21]): 10 mm; zone of inhibition at 400 µg/disc (Escherichia coli [22]): 10 mm; zone of inhibition at 400 µg/disc (Staphylococcus aureus [23]): 10 mm; MIC (Candida albicans [24]): ≥ 256 µg/mL; MIC (Escherichia coli [25]): ≥ 256 µg/mL; zone of inhibition at 400 µg/disc (Escherichia coli [26]): 10 mm; zone of inhibition at 400 µg/disc (Pseudomonas aeruginosa [27]): 10 mm; MIC (Escherichia coli [28]): ≥ 256 µg/mL; MIC [29]: ≥ 256 µg/mL; zone of inhibition at 400 µg/disc (Staphylococcus aureus [30]): 10 mm |
| C=CCNC(=O)[C@H](CC)[C@H]1CC[C@H](C)[C@H]([C@@H](C)[C@H](O)[C@H](C)C(=O)[C@H](CC)[C@H]2O[C@]3(C=C[C@@H](O)[C@]4(CC[C@@](C)([C@H]5CC[C@](O)(CC)[C@H](C)O5)O4)O3)[C@H](C)C[C@@H]2C)O1 [SALINOMYCIN ALLYL AMIDE] | ≥ 256 µg/mL | ≥ 256 µg/mL | ≥ 256 µg/mL | ≥ 256 µg/mL | 10 mm | 10 mm | 10 mm | 10 mm | ≥ 256 µg/mL | ≥ 256 µg/mL | ≥ 256 µg/mL | ≥ 256 µg/mL | ≥ 256 µg/mL | ≥ 256 µg/mL | ≥ 256 µg/mL | 10 mm | ≥ 256 µg/mL | ≥ 256 µg/mL | 10 mm | 10 mm | zone of inhibition at 400 µg/disc [20]: 10 mm; zone of inhibition at 400 µg/disc (Proteus vulgaris [21]): 10 mm; zone of inhibition at 400 µg/disc (Escherichia coli [22]): 10 mm; zone of inhibition at 400 µg/disc (Staphylococcus aureus [23]): 10 mm; MIC (Candida albicans [24]): ≥ 256 µg/mL; MIC (Escherichia coli [25]): ≥ 256 µg/mL; zone of inhibition at 400 µg/disc (Escherichia coli [26]): 10 mm; zone of inhibition at 400 µg/disc (Pseudomonas aeruginosa [27]): 10 mm; MIC (Escherichia coli [28]): ≥ 256 µg/mL; MIC [29]: ≥ 256 µg/mL; zone of inhibition at 400 µg/disc (Staphylococcus aureus [30]): 10 mm |

Reference: ChEMBL document CHEMBL2046376, “Synthesis and antimicrobial activity of amide derivatives of polyether antibiotic-salinomycin” (2012)
